We go through 19 compounds from US10155021B2, “Antimicrobial 4-oxoquinolizines” (Emergent Product Development Gaithersburg Inc., priority 2011, dated 2018).

Assay [1] relates to S. aureus BAA-1556 (USA300-Type MRSA, FQ-R). Put plainly: MIC, selected panel of Gram-positive and Gram-negative strains (Example 5). It counts as cell-based, Staphylococcus aureus.
The subject of another assay is S. aureus ATCC 25923. The assay is described as above. It counts as cell-based. The settings on record: Staphylococcus aureus, ATCC25923, read-out: MIC S. aureus ATCC 25923.
Assay [2] deals with S. aureus ATCC 43300 (MRSA, FQ-S). The assay is described as above. Format: cell-based, Staphylococcus aureus.
In a further assay the test system is E. coli ATCC 25922. The description is as above. It counts as cell-based, Escherichia coli.
For another assay, the system named is P. aeruginosa ATCC 27853. The assay is described as above. Format: cell-based.
Another assay has as its system B. thailandensis E264. Put plainly: microbe, parasite or virus in culture. It counts as cell-based, Burkholderia thailandensis. The conditions noted are these: Burkholderia thailandensis, E264, read-out: MIC B. thailandensis E264.
The subject of another assay is A. baumannii ATCC 19606. Put plainly: MIC, selected panel of Gram-positive and Gram-negative strains (Example 5). It counts as cell-based, Acinetobacter baumannii. The conditions noted are these: Acinetobacter baumannii, ATCC19606, read-out: MIC A. baumannii ATCC 19606.
The mark [3] stands for this setting: Staphylococcus aureus; read-out: MIC S. aureus BAA-1556 (USA300-Type MRSA, FQ-R).
Where [4] appears, read: Staphylococcus aureus, read-out: MIC S. aureus BAA-1556 (USA300-Type MRSA, FQ-R).
Setting [5] is: Staphylococcus aureus, read-out: MIC S. aureus ATCC 43300 (MRSA, FQ-S).
Where [6] appears, read: Escherichia coli, ATCC25922, read-out: MIC E. coli ATCC 25922.
Where [7] appears, read: Pseudomonas aeruginosa, ATCC27853, read-out: MIC P. aeruginosa ATCC 27853.

The structures appear in SMILES notation. In brackets after ≈: the same amount, converted by molar mass. Like-named read-outs stand apart in the source and are kept apart here. Some results are limits rather than exact numbers.

For `O=C(O)c1cn(C2CC2)c2cc(N3CCNCC3)c(F)cc2c1=O` [Ciprofloxacin, reference compound], in assay [1] (setting [3]), the MIC is greater than 8 µg/mL.
Consider `Cc1c(-c2ccc(CN)s2)ccn2c(=O)c(C(=O)[O-])cc(C3CC3)c12.[K+]` [Compound 13K salt, potassium 8-(5-(aminomethyl)thiophen-2-yl)-1-cyclopropyl-9-methyl-4-oxo-4H-quinolizine-3-carboxylate], for which the MIC in assay [1] (setting [4]) was found to be 0.5 µg/mL; with S. aureus ATCC 25923, 0.016 µg/mL; in assay [2] (setting [5]), 0.016 µg/mL; in the assay with E. coli ATCC 25922 (setting [6]), 0.016 µg/mL; in the assay on P. aeruginosa ATCC 27853 (setting [7]), 1 µg/mL; with B. thailandensis E264 it was 0.5 µg/mL.
On to `Cc1c(-c2cccc(O)c2)ccn2c(=O)c(C(=O)[O-])cc(C3CC3)c12.[K+]` [Compound 56K salt, potassium 1-cyclopropyl-8-(3-hydroxyphenyl)-9-methyl-4-oxo-4H-quinolizine-3-carboxylate], for which the MIC in the assay on S. aureus ATCC 25923 was found to be 0.008 µg/mL; in assay [2] (setting [5]), 0.008 µg/mL; in the assay with E. coli ATCC 25922 (setting [6]) it was 0.032 µg/mL; in the assay on P. aeruginosa ATCC 27853 (setting [7]), 2 µg/mL; in the assay with B. thailandensis E264, 0.25 µg/mL.
As to `Cc1c(-c2ccc(O)cc2)c(F)cn2c(=O)c(C(=O)[O-])cc(C3CC3)c12.[K+]` [Compound 61K salt, potassium 8-(4-hydroxyphenyl)-1-cyclopropyl-7-fluoro-9-methyl-4-oxo-4H-quinolizine-3-carboxylate], the MIC in assay [1] (setting [4]) amounted to 0.064 µg/mL; with E. coli ATCC 25922 (setting [6]), 0.032 µg/mL; with P. aeruginosa ATCC 27853 (setting [7]), 2 µg/mL; with B. thailandensis E264, 0.5 µg/mL.
On to `CC(=O)NCc1ccc(-c2ccn3c(=O)c(C(=O)[O-])cc(C4CC4)c3c2C)cc1.[K+]` [Compound 64K salt, potassium 8-(4-(Acetamidomethyl)phenyl)-1-cyclopropyl-9-methyl-4-oxo-4H-quinolizine-3-carboxylate], for which the MIC worked out at 0.5 µg/mL in assay [1] (setting [4]); 0.032 µg/mL in the assay on S. aureus ATCC 25923; 0.032 µg/mL in assay [2] (setting [5]); 0.5 µg/mL with A. baumannii ATCC 19606; 8 µg/mL in the assay with P. aeruginosa ATCC 27853 (setting [7]); 2 µg/mL in the assay with B. thailandensis E264.
Take `COc1cc(-c2ccn3c(=O)c(C(=O)[O-])cc(C4CC4)c3c2C)ccc1O.[K+]` [Compound 66K salt, potassium 8-(4-hydroxy-3-methoxyphenyl)-1-cyclopropyl-9-methyl-4-oxo-4H-quinolizine-3-carboxylate]: the MIC is 0.25 µg/mL in assay [1] (setting [4]); 0.008 µg/mL in the assay on S. aureus ATCC 25923; 0.008 µg/mL in assay [2] (setting [5]); 0.5 µg/mL in the assay with A. baumannii ATCC 19606; 4 µg/mL in the assay with P. aeruginosa ATCC 27853 (setting [7]); 1 µg/mL in the assay on B. thailandensis E264.
Take `CNc1ccc(-c2ccn3c(=O)c(C(=O)[O-])cc(C4CC4)c3c2C)cc1C.[K+]` [Compound 69K salt, potassium 8-(3-methyl-4-(methylamino)phenyl)-1-cyclopropyl-9-methyl-4-oxo-4H-quinolizine-3-carboxylate]: the MIC is 0.25 µg/mL in assay [1] (setting [4]); no more than 0.004 µg/mL in the assay on S. aureus ATCC 25923; no more than 0.004 µg/mL in assay [2] (setting [5]); 0.25 to 0.5 µg/mL in the assay on A. baumannii ATCC 19606; 4 µg/mL in the assay on P. aeruginosa ATCC 27853 (setting [7]); 1 µg/mL in the assay on B. thailandensis E264.
Consider `Cc1c(-c2ccc(O)c(F)c2)ccn2c(=O)c(C(=O)[O-])cc(C3CC3)c12.[K+]` [Compound 70K salt, potassium 8-(3-fluoro-4-hydroxyphenyl)-1-cyclopropyl-9-methyl-4-oxo-4H-quinolizine-3-carboxylate], for which the MIC in assay [1] (setting [4]) was 0.064 µg/mL; in the assay on S. aureus ATCC 25923, no more than 0.004 µg/mL; in assay [2] (setting [5]), no more than 0.004 µg/mL; in the assay with E. coli ATCC 25922 (setting [6]) it was 0.032 µg/mL; in the assay with P. aeruginosa ATCC 27853 (setting [7]), 1 µg/mL; with B. thailandensis E264 it was 0.25 µg/mL.
For `Cc1c(-c2ccc3[nH]nc(C4CC4)c3c2)ccn2c(=O)c(C(=O)[O-])cc(C3CC3)c12.[K+]` [Compound 71K salt, potassium 8-(3-cyclopropyl-1H-indazol-5-yl)-1-cyclopropyl-9-methyl-4-oxo-4H-quinolizine-3-carboxylate], the MIC in the assay on S. aureus ATCC 25923 was no more than 0.004 µg/mL; in assay [2] (setting [5]), no more than 0.004 µg/mL; with A. baumannii ATCC 19606 it was 0.5 µg/mL; with P. aeruginosa ATCC 27853 (setting [7]), greater than 8 µg/mL; in the assay on B. thailandensis E264 it was 2 µg/mL.
With `Cc1c(-c2ccc3sc(N)nc3c2)ccn2c(=O)c(C(=O)[O-])cc(C3CC3)c12.[K+]` [Compound 73K salt, potassium 8-(2-aminobenzo[d]thiazol-5-yl)-1-cyclopropyl-9-methyl-4-oxo-4H-quinolizine-3-carboxylate], the MIC in assay [1] (setting [4]) was 0.064 µg/mL; in the assay on S. aureus ATCC 25923, no more than 0.004 µg/mL; in assay [2] (setting [5]), no more than 0.004 µg/mL; with E. coli ATCC 25922 (setting [6]) it was 0.032 µg/mL; in the assay on P. aeruginosa ATCC 27853 (setting [7]), 2 µg/mL; with B. thailandensis E264 it was 0.5 µg/mL.
Consider `Cc1c(-c2ccc3c(c2)CCN3)ccn2c(=O)c(C(=O)[O-])cc(C3CC3)c12.[K+]` [Compound 77K salt, potassium 8-(indolin-5-yl)-1-cyclopropyl-9-methyl-4-oxo-4H-quinolizine-3-carboxylate], for which the MIC in assay [1] (setting [4]) was 0.5 µg/mL; with S. aureus ATCC 25923, 0.016 µg/mL; in assay [2] (setting [5]), 0.016 µg/mL; in the assay on A. baumannii ATCC 19606 it was 0.25 µg/mL; in the assay with P. aeruginosa ATCC 27853 (setting [7]) it was 4 µg/mL; in the assay on B. thailandensis E264, 1 µg/mL.
Regarding `CNc1ccc(-c2ccn3c(=O)c(C(=O)[O-])cc(C4CC4)c3c2C)cn1.[K+]` [Compound 78K salt, potassium 8-(6-(methylamino)pyridin-3-yl)-1-cyclopropyl-9-methyl-4-oxo-4H-quinolizine-3-carboxylate], the MIC in the assay with S. aureus ATCC 25923 is 0.008 µg/mL; in assay [2] (setting [5]), 0.008 µg/mL; in the assay with E. coli ATCC 25922 (setting [6]), 0.064 to 0.125 µg/mL; in the assay with P. aeruginosa ATCC 27853 (setting [7]), 2 µg/mL; in the assay with B. thailandensis E264, 0.5 µg/mL.
As for `Cc1c(-c2ccc3c(cnn3C)c2)ccn2c(=O)c(C(=O)[O-])cc(C3CC3)c12.[K+]` [Compound 81K salt, potassium 8-(1-methyl-1H-indazol-5-yl)-1-cyclopropyl-9-methyl-4-oxo-4H-quinolizine-3-carboxylate], the MIC in assay [1] (setting [4]) is 0.064 µg/mL; in the assay with S. aureus ATCC 25923 it was no more than 0.004 µg/mL; in assay [2] (setting [5]), no more than 0.004 µg/mL; in the assay on E. coli ATCC 25922 (setting [6]), 0.064 µg/mL; in the assay on P. aeruginosa ATCC 27853 (setting [7]) it was 2 µg/mL; in the assay with B. thailandensis E264, 0.25 µg/mL.
For `Cc1c(-c2ccc(N3CCNCC3)nc2)ccn2c(=O)c(C(=O)[O-])cc(C3CC3)c12.[K+]` [Compound 84K salt, potassium 8-(6-(piperazin-1-yl)pyridin-3-yl)-1-cyclopropyl-9-methyl-4-oxo-4H-quinolizine-3-carboxylate], the MIC in assay [1] (setting [4]) was 2 µg/mL; with A. baumannii ATCC 19606, 2 µg/mL; in the assay on E. coli ATCC 25922 (setting [6]), 0.125 to 0.25 µg/mL; in the assay on P. aeruginosa ATCC 27853 (setting [7]) it was 8 µg/mL; in the assay with B. thailandensis E264, 8 µg/mL.
On to `Cc1cn2c(=O)c(C(=O)[O-])cc(C3CC3)c2c(C)c1-c1ccc(N)nc1.[K+]` [Compound 87K salt, potassium 8-(6-amino-pyridin-3-yl)-1-cyclopropyl-7,9-dimethyl-4-oxo-4H-quinolizine-3-carboxylate], for which the MIC came out at 8 µg/mL in assay [1] (setting [4]); 0.064 µg/mL in the assay on S. aureus ATCC 25923; 0.064 µg/mL in assay [2] (setting [5]); 0.25 µg/mL with A. baumannii ATCC 19606; 8 µg/mL in the assay on P. aeruginosa ATCC 27853 (setting [7]); 4 µg/mL in the assay on B. thailandensis E264.
`Cc1cn2c(=O)c(C(=O)[O-])cc(C3CC3)c2c(C)c1-c1ccc2[nH]ncc2c1.[K+]` [Compound 88K salt, potassium 8-(1H-indazol-5-yl)-1-cyclopropyl-7,9-dimethyl-4-oxo-4H-quinolizine-3-carboxylate]: the MIC in assay [1] (setting [4]) turned out to be 0.5 µg/mL; in the assay on S. aureus ATCC 25923, 0.008 µg/mL; in assay [2] (setting [5]), 0.008 µg/mL; with A. baumannii ATCC 19606, 0.5 µg/mL; in the assay on P. aeruginosa ATCC 27853 (setting [7]), 4 µg/mL; with B. thailandensis E264, 1 µg/mL.
Turning to `COc1c(-c2ccc(N)nc2)ccn2c(=O)c(C(=O)[O-])cc(C3CC3)c12.[K+]` [Compound 89K salt, potassium 8-(6-amino-pyridin-3-yl)-1-cyclopropyl-9-methoxy-4-oxo-4H-quinolizine-3-carboxylate], the MIC in assay [1] (setting [4]) was 2 µg/mL; in the assay with S. aureus ATCC 25923 it was 0.032 µg/mL; in assay [2] (setting [5]), 0.032 µg/mL; with A. baumannii ATCC 19606, 0.5 µg/mL; in the assay on P. aeruginosa ATCC 27853 (setting [7]), 8 µg/mL; in the assay on B. thailandensis E264, 4 µg/mL.
Regarding `COc1c(-c2ccc3[nH]ncc3c2)ccn2c(=O)c(C(=O)[O-])cc(C3CC3)c12.[K+]` [Compound 90K salt, potassium 8-(1H-indazol-5-yl)-1-cyclopropyl-9-methoxy-4-oxo-4H-quinolizine-3-carboxylate], the MIC came to 0.25 µg/mL in assay [1] (setting [4]); 0.008 µg/mL in the assay on S. aureus ATCC 25923; 0.008 µg/mL in assay [2] (setting [5]); 0.5 µg/mL with A. baumannii ATCC 19606; 4 µg/mL with P. aeruginosa ATCC 27853 (setting [7]); 2 µg/mL in the assay with B. thailandensis E264.
In the case of `C[C@H]1c2cccc(O)c2C(=O)C2=C(O)[C@]3(O)C(=O)C(C(N)=O)=C(O)[C@@H](N(C)C)[C@@H]3[C@@H](O)[C@@H]21` [Doxycycline, reference compound], the MIC was 4 µg/mL (≈ 9 µM) in assay [1] (setting [3]); 0.25 µg/mL (≈ 0.563 µM) in assay [2] (Staphylococcus aureus; read-out: MIC S. aureus ATCC 43300 (MRSA, FQ-S)); 1 µg/mL (≈ 2.25 µM) in the assay with E. coli ATCC 25922 (Escherichia coli, ATCC25922; read-out: MIC E. coli ATCC 25922); greater than 8 µg/mL in the assay with P. aeruginosa ATCC 27853 (Pseudomonas aeruginosa, ATCC27853; read-out: MIC P. aeruginosa ATCC 27853); 2 µg/mL (≈ 4.5 µM) with B. thailandensis E264.
